What all share (assay type): in vivo
Experiment [1] relates to Phaedon cochleariae. Description: Phaedon cochleariae - spray test. As to conditions: in Brassica rapa, foliar, 168 h, read-out: mortality in %. Summed up:
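Chinese cabbage leaf disks sprayed with compound diluted in water containing 1000 ppm emulsifier, then infested with mustard beetle larvae once dry. Mortality in % scored after 7 days (100% = all larvae killed, 0% = none).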

The subject of experiment [2] is Spodoptera frugiperda. Description: Spodoptera frugiperda - spray test. As to conditions: in Zea mays, 168 h, read-out: mortality in %. Summed up: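 Maize leaf sections were sprayed with compound formulated in solvent and diluted in water containing 1000 ppm emulsifier, then infested with fall armyworm larvae after drying. Percent mortality was scored after 7 days (100% = all caterpillars dead, 0% = none).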

For experiment [3], the system named is Myzus persicae. Description: Myzus persicae - oral test. As to conditions: 120 h, read-out: mortality in %. An outline of the steps: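 Mixed-population green peach aphids fed through parafilm on compound diluted in water plus IPL41 insect medium (33%+15% sugar). Mortality (%) scored after 5 days, 100% meaning all aphids killed.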
Experiment [4] deals with Aphis gossypii. In words: Aphis gossypii - oral test. The note with it: 120 h, read-out: mortality in %. An outline of the steps:
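Mixed-population cotton aphids feed through parafilm on compound (acetone stock diluted in water) mixed with IPL41 insect medium containing sugar. Mortality (%) scored after 5 days.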

The subject of experiment [5] is Diabrotica balteata. In words: Diabrotica balteata - spray test. The note with it: 168 h, 160 μg/well, germinated wheat seeds, larvae, after 7 days, read-out: efficacy in %. An outline of the steps: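 Wheat seeds germinated 1 day on agar were sprayed with compound diluted in water with 1000 ppm emulsifier, then infested with 10-20 Diabrotica balteata larvae. Efficacy in % scored after 7 days: 100% = seedlings grown as untreated, uninfected control; 0% = no seedlings grown.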

For experiment [6], the system named is Tetranychus urticae. Description: Tetranychus urticae - spray test OP-resistant. As to conditions: foliar, 144 h, French bean leaf disks, all instars, after 6 days. The protocol:
Tetranychus urticae—Spray Test OP-Resistant
To produce a suitable preparation of active compound, 1 part by weight of active compound is mixed with the stated amount of solvents and is diluted with water, containing an emulsifier concentration of 1000 ppm, to the desired concentration. Further test concentrations are prepared by dilution with emulsifier containing water.
French bean (Phaseolus vulgaris) leaf disks infected with all instars of the two spotted spidermite (Tetranychus urticae), are sprayed with a preparation of the active ingredient of the desired concentration.
After 6 days mortality in % is determined. 100% means all spider mites have been killed and 0% means none of the spider mites have been killed.

Experiment [7] deals with Nezara viridula. Description: Nezara viridula - spray test 1. The note with it: in Hordeum vulgare, 96 h, read-out: mortality in %. An outline of the steps:
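Barley plants carrying southern green stink bug larvae were sprayed with compound diluted in water with 1000 ppm emulsifier. Mortality (%) was scored after 4 days.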

Experiment [8] concerns Nilaparvata lugens. In words: Nilaparvata lugens - spray test 1. The note with it: in Oryza sativa, 96 h, read-out: mortality in %, 500 g/ha, rice plants, after 4 days. Summed up:
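Rice plants (Oryza sativa) were sprayed with the compound preparation in water containing 1000 ppm emulsifier, then infested with brown planthoppers. Percent mortality scored after 4 days (100% = all killed, 0% = none).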

Experiment [9] deals with Meloidogyne incognita. In words: Meloidogyne incognita - test. As to conditions: 336 h, salad seedlings in sand, after 14 days, read-out: nematicidal activity (percentage of gall formation). The protocol: Meloidogyne incognita—Test
Solvent: 125.0 parts by weight of acetone
To produce a suitable preparation of active compound, 1 part by weight of active compound is mixed with the stated amount of solvent, and the concentrate is diluted with water to the desired concentration.
Vessels are filled with sand, a solution of the active ingredient, a suspension containing eggs and larvae of the southern root-knot nematode (Meloidogyne incognita) and salad seeds. The salad seeds germinate and the seedlings grow. Galls develop in the roots.
After 14 days the nematicidal activity is determined on the basis of the percentage of gall formation. 100% means no galls were found and 0% means the number of galls found on the roots of the treated plants was equal to that in untreated control plants.

Experiment [10] has as its system Culex quinquefasciatus. In words: Culex test (CULXFAS surface treatment & contact assay). The note with it: 30 minutes exposure, 24 hours after contact, read-out: efficacy (mortality in percent). Here is the method:
Culex Test (CULXFAS Surface Treatment & Contact Assay)
Solvent: Acetone+2000 ppm rapeseed oil methyl ester (RME)
In order to produce a sufficient, active ingredient containing solution it is necessary to solve the test-compound in an acetone/RME solvent mixture. This solution is pipetted onto a glazed tile and after evaporation of the acetone, adult mosquitoes of the species Culex quinquefasciatus (Brown house mosquito) are placed onto the dried surface. The exposure time is 30 minutes.
(§1) Mortality in percent (%) is determined 24 hours after contact to the treated surface. 100% mortality means that all test-insects are dead, whereas 0% means that not a single insect died.

For experiment [11], the system named is Aedes aegypti strain MONHEIM. Description: Aedes test (AEDSAE surface treatment & contact assay). As to conditions: 30 minutes exposure, 24 hours after contact, read-out: efficacy (mortality in percent). The protocol:
Aedes Test (AEDSAE Surface Treatment & Contact Assay)
Solvent: Aceton+2000 ppm rapeseed oil methyl ester (RME)
In order to produce a sufficient, active ingredient containing solution it is necessary to solve the test-compound in an acetone/RME solvent mixture. This solution is pipetted onto a glazed tile and after evaporation of the acetone, adult mosquitoes of the species Aedes aegypti strain MONHEIM are placed onto the dried surface. The exposure time is 30 minutes.
as §1

In experiment [12] the test system is Musca domestica strain WHO-N. In words: Musca domestica test (MUSCDO surface treatment & contact assay). The note with it: 30 minutes exposure, 24 hours after contact, read-out: efficacy (mortality in percent). The protocol:
Musca domestica Test (MUSCDO Surface Treatment & Contact Assay)
(§2) Solvent: Aceton+2000 ppm Rapeseed oil methyl ester (RME)
In order to produce a sufficient, active ingredient containing solution it is necessary to solve the test-compound in an acetone/RME solvent mixture. This solution is pipetted onto a glazed tile and after evaporation of the acetone, adult flies of the species Musca domestica strain WHO-N are placed onto the dried surface. The exposure time is 30 minutes.
as §1

In experiment [13] the test system is Blattella germanica strain PAULINIA
In words: Blattella germanica test (BLTTGE surface treatment & contact assay). The note with it: 30 minutes exposure, 24 hours after contact, read-out: efficacy (mortality in percent). Here is the method: Blattella germanica Test (BLTTGE Surface Treatment & Contact Assay)
as §2
In order to produce a sufficient, active ingredient containing solution it is necessary to solve the test-compound in an acetone/RME solvent mixture. This solution is pipetted onto a glazed tile and after evaporation of the acetone, adult animals of the species Blattella germanica strain PAULINIA are placed onto the dried surface. The exposure time is 30 minutes.
as §1

The mark [14] stands for this setting: surface concentration 4 mg/m^2, glazed tile.
Where [15] appears, read: surface concentration 20 mg/m^2, glazed tile.

As for `C#CCN(C(=O)c1cc(Cl)cc(C(F)(F)F)c1)C(C)c1ncnn1-c1ncccn1` (stereo not shown) [Compound I-41, 3-chloro-N-prop-2-ynyl-N-[1-(2-pyrimidin-2-yl-1,2,4-triazol-3-yl)ethyl]-5-(trifluoromethyl)benzamide], the mortality at 500 g/ha in experiment [1] was 100%; in [2] it was 100%; in [6], 90%; in [7] it was 100%; in [8] it was 100%. In addition, in experiment [3], the mortality at 20 ppm turned out to be 100%. The mortality at 100 ppm in [4] was found to be 100%. For the same compound, the pest or weed control at 160 µg/disc, 160 µg/well in experiment [5] amounted to 100%.
As to `CC(c1ncnn1-c1ncccn1)N(CC1CC1)C(=O)c1cccc(C#N)c1` (stereo not shown) [Compound I-38, 3-cyano-N-(cyclopropylmethyl)-N-[1-(2-pyrimidin-2-yl-1,2,4-triazol-3-yl)ethyl]benzamide], the mortality at 500 g/ha in experiment [1] and in [7] was 100% each time. Further, in experiment [3], the mortality at 20 ppm came to 100%. The mortality at 100 ppm in [4] amounted to 100%. In addition, the pest or weed control at 160 µg/disc, 160 µg/well in [5] worked out at 100%. The pest or weed control at 20 ppm in experiment [9] was 100%.
For the compound `CCN(C(=O)c1cc(Cl)cc(C(F)(F)F)c1)C(C)c1ncnn1-c1ncccn1` (stereo not shown) [Compound I-97, 3-chloro-N-ethyl-N-[1-(2-pyrimidin-2-yl-1,2,4-triazol-3-yl)ethyl]-5-(trifluoromethyl)benzamide], the mortality at 500 g/ha turned out to be 100% in [1]; 100% in experiment [2]; 80% in experiment [6]; 100% in [7]; 100% in experiment [8]. Moreover, the mortality at 20 ppm in experiment [3] was 100%. Also, the mortality at 100 ppm in experiment [4] stood at 100%. For the same compound, the pest or weed control at 160 µg/disc, 160 µg/well in [5] is 100%.
Regarding `CC(c1ncnn1-c1ncccn1)N(CC1CC1)C(=O)c1cccc(Cl)c1` (stereo not shown) [Compound I-108], the mortality at 500 g/ha in experiment [1], in experiment [7] and in experiment [8] was 100% throughout. In addition, the pest or weed control at 160 µg/disc, 160 µg/well in [5] worked out at 100%. Further, the pest or weed control at 20 ppm in experiment [9] is 90%.
Regarding `CC(c1ncnn1-c1cncnc1)N(CC1CC1)C(=O)c1cc(Cl)cc(C(F)(F)F)c1` (stereo not shown) [Compound I-112], the pest or weed control at 160 µg/disc, 160 µg/well in experiment [5] is 100%. The mortality at 500 g/ha in experiment [6] was determined as 90%.
Take `CC(c1ncnn1-c1ncccn1)N(CC1CC1)C(=O)c1cc(Cl)cc(Cl)c1` (stereo not shown) [Compound I-95]: the mortality at 500 g/ha is 100% in experiment [1], 100% in experiment [2], 100% in experiment [7] and 90% in experiment [8]. In addition, the mortality at 20 ppm in [3] is 100%. Also, in [4], the mortality at 100 ppm was found to be 100%. Further, in [5], the pest or weed control at 160 µg/disc, 160 µg/well came to 100%. The pest or weed control at 20 ppm in experiment [9] was determined as 90%.
Turning to `CC(c1ncnn1-c1ncc(Cl)cn1)N(CC1CC1)C(=O)c1cc(Cl)cc(C(F)(F)F)c1` (stereo not shown) [Compound I-80, 3-chloro-N-[1-[2-(5-chloropyrimidin-2-yl)-1,2,4-triazol-3-yl]ethyl]-N-(cyclopropylmethyl)-5-(trifluoromethyl)benzamide], the mortality at 500 g/ha in experiment [1], in experiment [2] and in experiment [7] was 100% in each case. Also, the mortality at 20 ppm in experiment [3] turned out to be 100%. The mortality at 100 ppm in [4] came out at 100%. Besides, the pest or weed control at 160 µg/disc, 160 µg/well in [5] was 100%. For the same compound, the pest or weed control at 20 ppm in experiment [9] is 90%.
Take `CC(c1ncnn1-c1ncccn1)N(CC1CC1)C(=O)c1cc(C(F)(F)F)cc(C(F)(F)F)c1` (stereo not shown) [Compound I-48, N-(cyclopropylmethyl)-N-[1-(2-pyrimidin-2-yl-1,2,4-triazol-3-yl)ethyl]-3,5-bis(trifluoromethyl)benzamide]: the mortality at 500 g/ha in experiment [1], in experiment [2], in [7] and in experiment [8] was 100% in each case. The mortality at 20 ppm in experiment [3] was 100%. The mortality at 100 ppm in experiment [4] was 100%. In addition, the pest or weed control at 160 µg/disc, 160 µg/well in experiment [5] came out at 100%. In [9], the pest or weed control at 20 ppm was found to be 100%. The mortality at 4 mg/m2 in experiment [10] (setting [14]), in experiment [11] (setting [14]), in experiment [12] (setting [14]) and in experiment [13] (setting [14]) was 80 to 100% throughout. Also, the mortality at 20 mg/m2 in experiment [10] (setting [15]), in experiment [11] (setting [15]), in experiment [12] (setting [15]) and in experiment [13] (setting [15]) was 80 to 100% throughout.
`CC(c1ncnn1-c1ncccn1)N(CC1CC1)C(=O)c1cc(Cl)cc(SC(F)(F)F)c1` (stereo not shown) [Compound I-107, 3-chloro-N-(cyclopropylmethyl)-N-[1-(2-pyrimidin-2-yl-1,2,4-triazol-3-yl)ethyl]-5-(trifluoromethylsulfanyl)benzamide]: the mortality at 500 g/ha in experiment [1], in [2], in [7] and in experiment [8] was 100% throughout. Moreover, the mortality at 20 ppm in experiment [3] amounted to 100%. The mortality at 100 ppm in experiment [4] was determined as 100%. Also, the pest or weed control at 160 µg/disc, 160 µg/well in [5] came out at 100%. Besides, the pest or weed control at 20 ppm in [9] turned out to be 90%.
Take `CC(c1ncnn1-c1ncccn1)N(CC(F)F)C(=O)c1cc(Cl)cc(C(F)(F)F)c1` (stereo not shown) [Compound I-89, 3-chloro-N-(2,2-difluoroethyl)-N-[1-(2-pyrimidin-2-yl-1,2,4-triazol-3-yl)ethyl]-5-(trifluoromethyl)benzamide]: the mortality at 500 g/ha in experiment [1] and in [2] was 100% throughout. In experiment [3], the mortality at 20 ppm amounted to 100%. Further, the mortality at 100 ppm in experiment [4] is 100%. Further, in experiment [5], the pest or weed control at 160 µg/disc, 160 µg/well is 100%. Also, the pest or weed control at 20 ppm in experiment [9] was determined as 100%.
With `CC(c1ncnn1-c1ncccn1)N(CC1CC1)C(=O)c1cncc(Br)c1` (stereo not shown) [Compound I-79], the mortality at 500 g/ha in [1] was found to be 100%; in experiment [7] it was 90%; in experiment [8], 100%. Also, the pest or weed control at 160 µg/disc, 160 µg/well in [5] turned out to be 100%. Moreover, in experiment [9], the pest or weed control at 20 ppm was 100%.

Source of the values: patent US20200404919A1, “USE OF HETEROARYL-TRIAZOLE AND HETEROARYL-TETRAZOLE COMPOUNDS AS PESTICIDES IN PLANT PROTECTION” (Bayer Aktiengesellschaft, priority 2018, published 2020).
